The results in this text go back to patent US4912104A, “Tricyclic fused pryimidine derivatives, and their use as pharmaceuticals” (Takeda Chemical Industries, Ltd., priority 1987, dated 1990).

In data set [1] the test system is Reversed passive Arthus reaction. Kind of data set: Antiinflammatory action (Reversed passive Arthus reaction). The data set is classed as in vivo, Jcl: SD rats. Particulars: Rattus norvegicus, 1 h; 12.5 mg/kg oral, one hour before the injection of egg albumin; rats; read-out: Inhibition rate, Reversed passive Arthus reaction. The procedure:
(2) Antiinflammatory action (Reversed passive Arthus reaction)
A group consisting of six Jcl: SD rats (7 week old, male was used. The hair of the back of the animals was cut, under ether anesthesia, and 1 ml each of a 0.5% solution of egg albumin in physiological saline solution was injected into the tail vein of each test animal, followed by intradermal injection of 0.1 ml of rabbit anti-egg albumin antiserum at each side of the left and right of the back and a further intradermal injection of 0.1 ml of physiological saline solution at the left side. Three hours later, each animal was intravenously injected with 1 ml of 1% Evans' blue physiological saline solution. Thirty minutes later, the test animals were exfoliated and the area(mm^2) of each of the blue spot was measured. The test sample in a dose of 12.5 mg/kg was orally administered one hour before the injection of egg albumin. By comparing the area(mm^2) of the blue spot in the test group with that of the control group, inhibition rate was determined.

The subject of the next data set is Carrageenin edema. The data set is described as follows: Antiinflammatory action (Carrageenin edema method). Particulars: Rattus norvegicus; 50 mg/kg oral, one hour before carrageenin; paw volume 3 hours later; rats; read-out: Inhibition rate, Carrageenin edema. The data set is classed as in vivo, Jcl: SD rats. The procedure:
(1) Antiinflammatory action (Carrageenin edema method)
Using a group of six Jcl: SD rats (6 week old, male), antiinflammatory action was investigated in accordance with the method of Winter et al. [Proc. Soc. Exp. Biol. Med., 111, 544(1962)]. One hour after the oral administration of 50 mg/kg of a test sample, the animals were injected subcutaneously with 0.05 ml each of a 1% solution of carrageenin in physiological saline solution into a sole. The volume of the hind-paw was measured 3 hours later and compared with that before the injection, and the edema volume was determined from the difference. By comparing the edema volumes of animal groups untreated and treated with test samples, the inhibition rate was determined.
Background: The carrageenan paw model is a standard test of acute inflammation.

The test system of another data set is Phenyl quinone writhing. Kind of data set: Analgesic action (Phenyl quinone writhing method). It counts as in vivo, Slc: ICR mice. Particulars: Mus musculus, 20 min; 50 mg/kg oral, 30 minutes before phenyl quinone; 20 minutes counting; mice; read-out: Inhibition rate, Phenyl quinone writhing. The procedure:
Analgesic action (Phenyl quinone writhing method)
Using a group of 10 Slc: ICR mice (4 week old, male), analgesic action was investigated in accordance with the method of Siegmund et al. [Proc. Soc. Exp. Biol. Med., 95, 729(1957)]. A test sample in a dose of 50 mg/kg was orally administered, and 30 minutes later, a 0.02% aqueous phenyl quinone solution was intraperitoneally injected in the proportion of 0.1 ml relative to 10 g of body weight. Over the period of 20 minutes from the injection, the number of writhings was counted for the individual animals. By comparing the untreated and treated animal groups for the number of reactions, the writhing inhibition rate was determined.
(In general: An intraperitoneal irritant provokes the stretching counted in writhing tests.)

The subject of another data set is Jcl: ICR mice. Particulars: mouse, in vivo. The procedure: A group of 5 Jcl: Wistar rats (5 week old, 90-110 g body weight, Japan Clea, male) and a group of 5 Jcl: ICR mice (5 week old, 25-30 g body weight, Japan Clea, male) were used. These rats were each administerred orally with 10 ml/kg of the test compound (250 mg/kg), while these mice were each administered orally with 20 ml/kg of the test compound (500 mg/kg).
These oral administrations were made on the form of a suspension in 5% gum arabic vehicle. One week later, the number of dead animals was observed.

The test system of data set [2] is acute hepatic failure due to P. acnes-LPS. Kind of data set: Effect against acute hepatic failure due to P. acnes-LPS (anti-lethal effect). The data set is classed as in vivo, BALB/c mice. The note with it: 0.3 mg/kg, p.o., one hour prior to LPS, 48 hours later; for Anti-lethal effect: Number of dead mice: group of 10, control 10 dead. The procedure:
A group of 10 BALB/c mice (7 week old, male) was used. Each mouse was injected into the tail vein with P. acnes killed by heating at a dose of 1 mg/mouse. Seven days later, each mouse was injected intravenously with LPS(1 l μg/mouse) derived from Salmonella enteritidis to cause acute hepatic failure. Usually, in a group of mice intravenously injected with LPS, 90% to 100% of the animals die within 24 hours. Using this model, each compound was tested. Each compound(I) shown in Table 2 was suspended in a 5% gum arabic vehicle and was orally administered to the animals at 0.3 mg/kg one hour prior to the injection of LPS, and then 48 hours later, the number of the dead mice was determined. The mice in the control group were orally given the 5% gum arabic vehicle one hour prior to LPS administration.

For `CCCCn1c(=O)n(CCC)c(=O)c2c3n(nc21)CCN3C` [compound 1], in data set [1], the inhibition in vivo at 12.5 mg/kg came to 32%. Moreover, the inhibition in vivo at 50 mg/kg with Carrageenin edema came to 70%; in the data set with Phenyl quinone writhing, 97%.

On to `CCCCn1c(=O)n(CCC)c(=O)c2c3n(nc21)CCN3` [compound 2], for which the inhibition in vivo at 12.5 mg/kg in data set [1] worked out at 65%. Moreover, the inhibition in vivo at 50 mg/kg with Carrageenin edema was determined as 103%; in the data set with Phenyl quinone writhing, 100%.

With `CCCCn1c(=O)c2c3n(nc2n(CCCC)c1=O)CCN3` [compound 3], in data set [1], the inhibition in vivo at 12.5 mg/kg was determined as 68%. Besides, the inhibition in vivo at 50 mg/kg in the data set on Carrageenin edema came to 100%; in the data set with Phenyl quinone writhing it was 98%.

As for `CCCCCn1c(=O)n(CCC)c(=O)c2c3n(nc21)CCN3` [compound 6], the inhibition in vivo at 12.5 mg/kg in data set [1] came out at 71%. In addition, the inhibition in vivo at 50 mg/kg with Carrageenin edema came out at 105%; in the data set on Phenyl quinone writhing, 96%.

For `CCn1c(=O)c2c3n(nc2n(CC)c1=O)CCN3` [compound 7], the inhibition in vivo at 12.5 mg/kg in data set [1] amounted to 42%. The results for the inhibition in vivo at 50 mg/kg with Carrageenin edema and in the data set with Phenyl quinone writhing were 99% and 52%, respectively.

Regarding `CCCn1c(=O)c2c3n(nc2n(CC)c1=O)CCN3` [compound 10], the inhibition in vivo at 12.5 mg/kg in data set [1] was 36%. Besides, the inhibition in vivo at 50 mg/kg in the data set with Carrageenin edema turned out to be 100%; with Phenyl quinone writhing, 87%.

As to `CCCn1c(=O)c2c3n(nc2n(CCC)c1=O)CCN3` [compound 13], the inhibition in vivo at 12.5 mg/kg in data set [1] turned out to be 65%. The inhibition in vivo at 50 mg/kg amounted to 97% in the data set on Carrageenin edema and 95% in the data set with Phenyl quinone writhing. Further, the “number of dead animals, Mice” value in the data set on Jcl: ICR mice is on record as 0.

As to `CCCn1c(=O)c2c3n(nc2n(CCC(C)C)c1=O)CCN3` [compound 17], in data set [1], the inhibition in vivo at 12.5 mg/kg is 73%. Besides, the figures for the inhibition in vivo at 50 mg/kg in the data set on Carrageenin edema and in the data set on Phenyl quinone writhing were 83% and 79%, respectively.

As for `C=CCn1c(=O)n(CCC)c(=O)c2c3n(nc21)CCN3` [compound 18], the inhibition in vivo at 12.5 mg/kg in data set [1] came to 87%. For the same molecule, the inhibition in vivo at 50 mg/kg with Carrageenin edema stood at 93%; with Phenyl quinone writhing, 90%.

For `C=CCn1c(=O)c2c3n(nc2n(CC=C)c1=O)CCN3` [compound 29], in data set [1], the inhibition in vivo at 12.5 mg/kg amounted to 73%. For the same molecule, the inhibition in vivo at 50 mg/kg in the data set with Carrageenin edema stood at 79%; with Phenyl quinone writhing, 80%.

Turning to `CCCn1c(=O)c2c3n(nc2n(CCC)c1=O)CCN3C(=O)CC` [compound 33], the inhibition in vivo at 12.5 mg/kg in data set [1] came out at 87%. For the same molecule, the inhibition in vivo at 50 mg/kg was determined as 87% in the data set with Carrageenin edema and 77% in the data set on Phenyl quinone writhing.

With `CCCCn1c(=O)n(CCC)c(=O)c2c3n(nc21)CCN3C(C)=O` [compound 40], the inhibition in vivo at 12.5 mg/kg in data set [1] is 69%. The inhibition in vivo at 50 mg/kg in the data set on Carrageenin edema stood at 82%; in the data set with Phenyl quinone writhing, 89%. For the same molecule, the “number of dead animals, Mice” value in the data set on Jcl: ICR mice was 0.

With `CCCCn1c(=O)n(CCC)c(=O)c2c1nn1cc[nH]c21` [compound 43], the inhibition in vivo at 12.5 mg/kg in data set [1] was 90%. For the same molecule, the inhibition in vivo at 50 mg/kg in the data set with Carrageenin edema is 109%; with Phenyl quinone writhing it was 89%. The “Anti-lethal effect: effective ratio” value in data set [2] is reported as 100%. Besides, in data set [2], the “Anti-lethal effect: Number of dead mice” value was determined as 0.

On to `CCCn1c(=O)c2c(nn3cc[nH]c23)n(CCC)c1=O` [compound 44], for which the inhibition in vivo at 12.5 mg/kg in data set [1] came to 91%. Moreover, the inhibition in vivo at 50 mg/kg in the data set on Carrageenin edema came to 90%; in the data set on Phenyl quinone writhing it was 96%. For the same molecule, in data set [2], the “Anti-lethal effect: effective ratio” value was 100%. In addition, the “Anti-lethal effect: Number of dead mice” value in data set [2] is on record as 0.

`C=CCn1c(=O)c2c(nn3cc[nH]c23)n(CC=C)c1=O` [compound 45]: the inhibition in vivo at 12.5 mg/kg in data set [1] came out at 74%. In the data set with Carrageenin edema, the inhibition in vivo at 50 mg/kg turned out to be 85%. In the data set on Phenyl quinone writhing, the inhibition in vivo at 50 mg/kg was found to be 87%. In data set [2], the “Anti-lethal effect: effective ratio” value was determined as 100% and the “Anti-lethal effect: Number of dead mice” value is 0.

As to `CCCCn1c(=O)c2c(nn3cc[nH]c23)n(CCCC)c1=O` [compound 46], the inhibition in vivo at 12.5 mg/kg in data set [1] turned out to be 70%. In addition, the inhibition in vivo at 50 mg/kg in the data set with Carrageenin edema is 90%. In the data set on Phenyl quinone writhing, the inhibition in vivo at 50 mg/kg was 96%. In data set [2], the “Anti-lethal effect: effective ratio” value is recorded as 80% and the “Anti-lethal effect: Number of dead mice” value turned out to be 2.

As for `CCCn1c(=O)c2c(nn3cc[nH]c23)n(CC(C)C)c1=O` [compound 48], the inhibition in vivo at 12.5 mg/kg in data set [1] was 93%. Besides, the inhibition in vivo at 50 mg/kg in the data set with Carrageenin edema amounted to 95%. The inhibition in vivo at 50 mg/kg with Phenyl quinone writhing worked out at 91%. For the same molecule, in data set [2], the “Anti-lethal effect: effective ratio” value came out at 90% and the “Anti-lethal effect: Number of dead mice” value amounted to 1.

With `C=CCn1c(=O)n(CCC)c(=O)c2c1nn1cc[nH]c21` [compound 49], the inhibition in vivo at 12.5 mg/kg in data set [1] was found to be 88%. In addition, the inhibition in vivo at 50 mg/kg in the data set on Carrageenin edema and in the data set on Phenyl quinone writhing was 80% each time. Further, the “Anti-lethal effect: effective ratio” value in data set [2] is 70%. For the same molecule, the “Anti-lethal effect: Number of dead mice” value in data set [2] is 3.

On to `CCCCCn1c(=O)n(CCC)c(=O)c2c1nn1cc[nH]c21` [compound 50], for which the inhibition in vivo at 12.5 mg/kg in data set [1] is 79%. Further, the inhibition in vivo at 50 mg/kg with Carrageenin edema was found to be 78%. In the data set with Phenyl quinone writhing, the inhibition in vivo at 50 mg/kg was 89%. In addition, in data set [2], the “Anti-lethal effect: effective ratio” value is 90% and the “Anti-lethal effect: Number of dead mice” value came to 1.
